Results reported in ChEMBL document CHEMBL1201862, “PubChem BioAssay data set” (2004).
Calls of active or inactive are those of the source.

Key:
Staphylococcus aureus = assay: Inhibitors of Bacterial Quorum Sensing Structure Activity Relationship (SAR) Analysis: Dose Response Assay. [Related pubchem assays: 700, 527 ]; assay type: functional, organism-based
Vero [1] = assay: Vero E6 cell cytotoxicity, SAR follow-up, cytotoxicity control for West Nile virus antiviral project, synthesized analogs (AID 2244); assay type: functional; details: Chlorocebus sabaeus
Vero [2] = assay: cytotoxicity of synthesized analogs in Vero cells, SAR follow-up, cytotoxicity control for West Nile virus antiviral project, cell-based, set II (AID 2402); assay type: functional; details: Chlorocebus sabaeus
[3] = biological target: Sphingosine 1-phosphate receptor 3 (Homo sapiens, UniProt Q99500); assay: Dose response cell-based high throughput screening assay for antagonists of the Sphingosine 1-Phosphate Receptor 3 (S1P3). [Related pubchem assays: 1429, 485 ]; assay type: functional
[4] = biological target: 5-hydroxytryptamine receptor 1E (Homo sapiens, UniProt P28566); assay: Counterscreen assay for S1P3 antagonists: Dose response cell-based high throughput screening assay to identify antagonists of the 5-Hydroxytryptamine Receptor Subtype 1E (5HT1E). [Related pubchem assays: 1429, 485 ]; assay type: functional
[5] = biological target: Signal transducer and activator of transcription 3 (Homo sapiens, UniProt P40763); assay: STAT3 activators, late-stage profile, late-stage follow-up, cell-based, STAT1 reporter, BCL3 qPCR, cytotoxicity, panel member STAT3 Activation (AID 2049)
Wee1-like protein kinase = Wee1-like protein kinase (Homo sapiens, UniProt P30291); assay: G2/M cell cycle arrest in HeLa, late-stage follow-up, mechanism study for Wee1 degradation inhibitor project, FACS, panel member Wee1 Degradation (AID 2088)
[6] = biological target: G2/mitotic-specific cyclin-B1 (Homo sapiens, UniProt P14635); assay: G2/M cell cycle arrest in HeLa, late-stage follow-up, mechanism study for Wee1 degradation inhibitor project, FACS, panel member Cyclin B Degradation (AID 2088)
[7] = inhibitors of Bluetongue virus cytopathic effect, confirmation, arbovirus, BSR cells (AID 1250); assay type: functional;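 also: protection from viral cytopathic effect measured as cell viability by ATP luminescence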
[8] = biological target: T1, Mannose-6-phosphate isomerase (Homo sapiens, UniProt P34949); assay: human PMI inhibitors, high substrate, primary screen, biochemical, fluorescence intensity, high mannose 6-phosphate (AID 1220)
T1 sequence (P34949 whole entry): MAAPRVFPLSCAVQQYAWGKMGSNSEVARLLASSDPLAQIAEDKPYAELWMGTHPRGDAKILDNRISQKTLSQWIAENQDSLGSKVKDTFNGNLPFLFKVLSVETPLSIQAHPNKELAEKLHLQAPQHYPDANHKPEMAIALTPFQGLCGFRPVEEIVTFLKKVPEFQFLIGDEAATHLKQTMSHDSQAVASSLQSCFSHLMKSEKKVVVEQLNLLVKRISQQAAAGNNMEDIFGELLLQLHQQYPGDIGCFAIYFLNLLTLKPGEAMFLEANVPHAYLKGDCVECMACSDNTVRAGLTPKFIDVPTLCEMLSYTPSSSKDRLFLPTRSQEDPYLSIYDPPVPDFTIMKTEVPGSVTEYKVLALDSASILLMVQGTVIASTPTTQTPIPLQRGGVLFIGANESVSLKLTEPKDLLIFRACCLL

[9] = biological target: Induced myeloid leukemia cell differentiation protein Mcl-1 (Homo sapiens, UniProt Q07820); assay type: functional
[10] = biological target: T1, Mannose-6-phosphate isomerase; assay: inhibitors of human PMI, primary screen, biochemical, fluorescence intensity, coupled assay (AID 1209)
Cytochrome P450 3A4 = Cytochrome P450 3A4 (Homo sapiens, UniProt P08684); details: Potency;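 also: confirmatory qHTS run detecting inhibitors and substrates of CYP3A4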
[11] = Luminescence Cell-Based Dose Confirmation HTS to Identify Inhibitors of Polyadenylation.; assay type: functional

Sequence of Sphingosine 1-phosphate receptor 3 (Q99500 whole entry): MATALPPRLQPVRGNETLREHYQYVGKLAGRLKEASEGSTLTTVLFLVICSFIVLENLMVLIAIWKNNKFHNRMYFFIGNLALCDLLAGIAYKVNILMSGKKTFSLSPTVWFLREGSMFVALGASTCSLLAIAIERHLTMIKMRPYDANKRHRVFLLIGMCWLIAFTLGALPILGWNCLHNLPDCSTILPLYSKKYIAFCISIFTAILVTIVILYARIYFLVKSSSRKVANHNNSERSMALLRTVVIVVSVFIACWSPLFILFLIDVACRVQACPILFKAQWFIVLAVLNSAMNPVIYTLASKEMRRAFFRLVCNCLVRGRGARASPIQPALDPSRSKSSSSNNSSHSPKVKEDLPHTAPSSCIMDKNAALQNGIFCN
Sequence of Signal transducer and activator of transcription 3 (P40763 whole entry): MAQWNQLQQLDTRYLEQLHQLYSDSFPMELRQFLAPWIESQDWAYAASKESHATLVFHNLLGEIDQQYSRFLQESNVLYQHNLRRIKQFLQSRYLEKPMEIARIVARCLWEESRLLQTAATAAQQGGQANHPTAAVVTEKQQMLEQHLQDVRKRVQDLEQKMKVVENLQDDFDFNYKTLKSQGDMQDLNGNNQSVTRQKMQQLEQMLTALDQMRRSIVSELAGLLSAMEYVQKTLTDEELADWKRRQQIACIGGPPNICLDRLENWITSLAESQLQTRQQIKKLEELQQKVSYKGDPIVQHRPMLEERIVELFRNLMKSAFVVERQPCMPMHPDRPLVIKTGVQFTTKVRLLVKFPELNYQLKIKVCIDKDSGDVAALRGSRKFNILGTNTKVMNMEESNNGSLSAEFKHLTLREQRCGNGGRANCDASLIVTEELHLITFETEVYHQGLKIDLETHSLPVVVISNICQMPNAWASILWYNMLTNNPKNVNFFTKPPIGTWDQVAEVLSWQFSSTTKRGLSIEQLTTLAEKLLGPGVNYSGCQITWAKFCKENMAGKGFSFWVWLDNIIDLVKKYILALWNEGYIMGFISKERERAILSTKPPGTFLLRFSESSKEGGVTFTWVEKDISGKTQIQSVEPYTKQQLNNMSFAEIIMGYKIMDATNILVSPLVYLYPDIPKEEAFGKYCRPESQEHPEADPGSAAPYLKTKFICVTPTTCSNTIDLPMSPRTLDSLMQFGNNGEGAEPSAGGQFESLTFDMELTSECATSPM
Sequence of Induced myeloid leukemia cell differentiation protein Mcl-1 (Q07820 whole entry): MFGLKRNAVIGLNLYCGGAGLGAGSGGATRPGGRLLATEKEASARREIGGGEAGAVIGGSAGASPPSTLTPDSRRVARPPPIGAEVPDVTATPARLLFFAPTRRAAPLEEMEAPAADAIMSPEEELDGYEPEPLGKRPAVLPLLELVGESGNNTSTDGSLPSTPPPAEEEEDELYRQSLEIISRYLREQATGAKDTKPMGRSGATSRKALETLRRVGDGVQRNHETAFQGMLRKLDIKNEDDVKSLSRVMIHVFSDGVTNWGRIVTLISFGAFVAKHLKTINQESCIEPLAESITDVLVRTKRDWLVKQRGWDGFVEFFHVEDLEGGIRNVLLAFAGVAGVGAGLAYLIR
Sequence of G2/mitotic-specific cyclin-B1 (P14635 whole entry): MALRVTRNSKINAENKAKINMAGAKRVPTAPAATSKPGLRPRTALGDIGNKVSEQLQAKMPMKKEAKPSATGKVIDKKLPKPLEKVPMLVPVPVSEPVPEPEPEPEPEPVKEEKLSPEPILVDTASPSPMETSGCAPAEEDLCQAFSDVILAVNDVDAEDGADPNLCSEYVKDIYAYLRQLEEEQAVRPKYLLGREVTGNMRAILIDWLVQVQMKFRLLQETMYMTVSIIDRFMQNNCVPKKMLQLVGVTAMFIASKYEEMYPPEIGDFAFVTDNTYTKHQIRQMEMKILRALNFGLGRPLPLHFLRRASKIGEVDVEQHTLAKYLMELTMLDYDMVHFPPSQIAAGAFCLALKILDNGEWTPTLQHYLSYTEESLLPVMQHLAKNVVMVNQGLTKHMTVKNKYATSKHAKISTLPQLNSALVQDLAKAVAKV
Sequence of 5-hydroxytryptamine receptor 1E (P28566 whole entry): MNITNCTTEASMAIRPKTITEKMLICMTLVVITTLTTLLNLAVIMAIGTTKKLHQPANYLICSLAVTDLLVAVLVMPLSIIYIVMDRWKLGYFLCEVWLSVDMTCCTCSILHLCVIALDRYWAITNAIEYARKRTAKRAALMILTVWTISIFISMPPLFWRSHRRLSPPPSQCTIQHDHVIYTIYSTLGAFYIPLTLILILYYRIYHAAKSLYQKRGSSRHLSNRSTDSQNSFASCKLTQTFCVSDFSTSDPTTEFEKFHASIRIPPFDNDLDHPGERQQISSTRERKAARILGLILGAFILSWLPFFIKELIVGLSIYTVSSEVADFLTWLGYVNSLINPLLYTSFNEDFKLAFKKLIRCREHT
Sequence of Wee1-like protein kinase (P30291 whole entry): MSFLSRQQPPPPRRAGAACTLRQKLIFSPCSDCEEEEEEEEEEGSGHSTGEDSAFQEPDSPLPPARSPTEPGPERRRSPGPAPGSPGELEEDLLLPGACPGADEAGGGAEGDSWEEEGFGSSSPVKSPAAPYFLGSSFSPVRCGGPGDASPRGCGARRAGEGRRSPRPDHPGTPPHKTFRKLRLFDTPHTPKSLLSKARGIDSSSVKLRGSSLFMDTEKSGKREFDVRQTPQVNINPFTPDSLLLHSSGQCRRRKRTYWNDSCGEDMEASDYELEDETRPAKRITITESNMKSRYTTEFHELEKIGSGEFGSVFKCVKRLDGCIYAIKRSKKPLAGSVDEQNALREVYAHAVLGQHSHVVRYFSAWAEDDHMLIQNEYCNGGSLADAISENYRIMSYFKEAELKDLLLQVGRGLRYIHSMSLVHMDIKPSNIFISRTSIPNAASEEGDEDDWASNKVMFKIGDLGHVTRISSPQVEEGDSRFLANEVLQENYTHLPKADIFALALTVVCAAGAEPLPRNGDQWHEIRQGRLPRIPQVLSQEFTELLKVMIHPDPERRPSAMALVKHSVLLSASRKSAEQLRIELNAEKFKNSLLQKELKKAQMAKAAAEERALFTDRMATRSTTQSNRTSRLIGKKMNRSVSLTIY
Sequence of Cytochrome P450 3A4 (P08684 whole entry): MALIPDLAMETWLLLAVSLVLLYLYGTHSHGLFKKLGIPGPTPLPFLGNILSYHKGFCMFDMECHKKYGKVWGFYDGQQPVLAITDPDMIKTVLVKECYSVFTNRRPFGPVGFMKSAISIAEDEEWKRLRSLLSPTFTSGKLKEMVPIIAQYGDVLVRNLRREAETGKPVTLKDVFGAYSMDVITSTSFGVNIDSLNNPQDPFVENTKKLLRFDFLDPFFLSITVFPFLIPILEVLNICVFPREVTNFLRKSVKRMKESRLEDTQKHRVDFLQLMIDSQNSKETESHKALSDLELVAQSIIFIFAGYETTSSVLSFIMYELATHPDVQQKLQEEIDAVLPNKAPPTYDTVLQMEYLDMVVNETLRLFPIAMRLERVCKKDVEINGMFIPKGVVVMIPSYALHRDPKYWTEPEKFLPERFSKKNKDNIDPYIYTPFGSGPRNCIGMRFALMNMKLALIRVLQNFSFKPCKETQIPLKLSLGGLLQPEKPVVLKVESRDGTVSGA

## CC(C)c1ccc(NC(=O)C(c2ccc3c(c2)OCO3)N2CCCCC2)cc1 (centres undefined)
Staphylococcus aureus
  IC50: 0.254 µM (active)

## O=c1c2cc(Cl)cc(Cl)c2nc2n1CCC2
Vero [1]
  CC50: > 40 µM (active)
Vero [2]
  CC50: > 100 µM (active)

## CSc1ccccc1NC(=O)C1CC(c2ccccc2O)=NO1 (centres undefined)
[3]
  IC50: > 50 µM (not active)
[4]
  IC50: > 50 µM (not active)

## COc1ccc(OC)c(NC(=O)c2cc(CN3CCCC3)on2)c1
[5]
  EC50: > 55.7 µM (inactive)

## Cc1cccc(CC(=O)Nc2cc(C)nn2-c2nc(C)cc(=O)[nH]2)c1
Wee1-like protein kinase
  EC50: > 49.7 µM (inactive)
[6]
  EC50: > 49.7 µM (inactive)

## Cc1cc(/N=C/c2c(O)ccc3cc(Br)ccc23)no1
[7]
  IC50: 31.8 µM (active)
[8]
  IC50: > 50 µM (not active)
[9]
  IC50: > 54 µM (not active)
[10]
  IC50: > 50 µM (not active)

## C[C@@H]1CCC2[C@@H](C)[C@@H](O)O[C@@H]3O[C@@]4(C)CC[C@@H]1[C@@]23OO4 (some centres undefined)
Cytochrome P450 3A4
  AC50: 12.6 µM (inconclusive)

## CC(C)=CCOc1c2ccoc2cc2oc(=O)ccc12 [ISOIMPERATORIN]
[11]
  EC50: > 120 µM (not active)
